# In US20100256214A1, “EPH RECEPTOR LIGANDS AND METHODS OF USE” (Burnham Institute for Medical Research, priority 2009, published 2010):
# Read-outs that look alike come from different tables or passages of the source.
# What was measured:
# EphA4 = EphA4 (Homo sapiens, UniProt P54764); assay: ELISA, ephrin-A5 AP binding to immobilized EphA4 Fc; conditions: for IC50: read-out: IC50 for inhibition of ephrin-A5 AP binding to EphA4
# Experimental: ELISA Assays and K, Determination—Protein A-coated wells (Pierce Biotecnology, Rockford, Ill.) were used to immobilize ephrin Fc fusion proteins (R&D Systems, Minneapolis, Minn.). Compounds at different concentrations were incubated with EphA4 AP (Cheng and Flanagan, (1994) Cell 79(1), 157-168) or EphA2 AP (Koolpe et al. (2002) J Biol Chem 277(49), 46974-46979) for 3 hours. Alternatively, Eph receptor Fc fusion proteins were immobilized on protein A-coated wells and ephrin-A5 AP (Menzel et al. (2001) Developmental Biology 230(1), 74-88) or ephrin-B2 AP (GeneHunter, Nashville, Tenn.) were added with the compounds. The amount of bound AP-fusion protein was quantified using pNPP as the substrate. Alkaline phosphatase activity from wells with Fc only was subtracted as background. To confirm that the binding of the compounds to EphA4 was reversible, the compounds were removed and the wells were incubated in binding buffer for 3 hours before washing and incubating with ephrin AP fusion proteins. Under these conditions, no inhibition of ephrin binding was observed indicating the reversible binding of the compounds.
# To calculate the inhibition constant (KO values, the binding of ephrin-A5 AP to EphA4 Fc immobilized on protein A-coated wells was measured in the absence and in the presence of the compounds at different concentrations. Each data set was fitted to the Michaelis-Menten equation: B=Bmax [S]/(KD+[S]), where [S] is the concentration of ephrin AP fusion protein and KD is the dissociation constant observed in the absence or in the presence of the compound, using non linear regression and the program GraphPad (Prism). To evaluate whether the inhibition is competitive, noncompetitive or uncompetitive the KD and Bmax values were determined at different compound concentrations. The Ki was obtained from the linear regression plot of KD/Bmax as a function of the concentration of the inhibitor according to: KD/Bmax=(KD[S])/(Ki·Bmax)+KD/Bmax. Alternatively, Ki values were obtained from the dose response curves, using the Cheng-Prusoff equation: Ki=IC50/(1+[S]/KD) (XX38, Cheng, Y., and Prusoff, W. H. (1973) Biochemical pharmacology 22(23), 3099-3108). Ephrin-A5 AP concentration were calculated from alkaline phosphatase activity (Flanagan et al. (2000) Methods in Enzymology. 327, 19-35).
# EphA2 = EphA2 (Homo sapiens, UniProt P29317); assay: EphA2 tyrosine phosphorylation in PC3 cells; format: cell-based; set-up: endogenous in cells; host or cells: PC3
# Experimental: FIGS. 9A-9G. A. PC3 cells pretreated for 15 min with the indicated concentrations of compound 1 or compound 2 were stimulated with 0.5 μg/mL ephrin-A1 Fc (+) or Fc as a control (−) for 20 min in the continued presence of the compounds. EphA2 immunoprecipitates were probed with anti-phosphotyrosine antibody (PTyr) and reprobed for EphA2. C indicates immunoprecipitations performed with control antibodies. B. Histogram showing the levels of EphA2 phosphorylation normalized to the amount of immunoprecipitated EphA2. Error bars indicate standard error from 3 experiments. Receptor phosphorylation levels were compared with those in the ephrin-stimulated cells by one-way ANOVA and Dunnett's post test. *P<0.05 and *P<0.01. C. PC3 cells stimulated with compound 1 as in (A) were stained with rhodamine-phalloidin to label actin filaments and DAPI to label nuclei. DMSO was used as a control (0 μM). […] Cells having rounded shape and area less than 20% of the mean value obtained for the Fc stimulated cells were scored as retracting. […]
# Measurement of Receptor Tyrosine Phosphorylation in Cells—HT22 neuronal cells, which endogenously express EphA4, are derived from immortalized mouse hippocampal neurons (Li et al. (1997) Neuron 19(2), 453-463). […] The protein concentration was calculated using the BCA protein assay kit (Pierce Biotecnology, Rockford, Ill.). […]
# [1] = from ephrin-A5 AP binding curves at different compound concentrations, read-out: Ki, competitive inhibition of EphA4-ephrin-A5 binding
# [2] = from other inhibition curves using different ephrin concentrations, read-out: Ki calculated with the Cheng-Prusoff equation, EphA4-ephrin-A5
# [3] = from the inhibition curves shown in FIG. 2, read-out: Ki calculated with the Cheng-Prusoff equation, EphA4-ephrin-A5
# EphA4, sequence (P54764 20-547 limits assumed, species assumed): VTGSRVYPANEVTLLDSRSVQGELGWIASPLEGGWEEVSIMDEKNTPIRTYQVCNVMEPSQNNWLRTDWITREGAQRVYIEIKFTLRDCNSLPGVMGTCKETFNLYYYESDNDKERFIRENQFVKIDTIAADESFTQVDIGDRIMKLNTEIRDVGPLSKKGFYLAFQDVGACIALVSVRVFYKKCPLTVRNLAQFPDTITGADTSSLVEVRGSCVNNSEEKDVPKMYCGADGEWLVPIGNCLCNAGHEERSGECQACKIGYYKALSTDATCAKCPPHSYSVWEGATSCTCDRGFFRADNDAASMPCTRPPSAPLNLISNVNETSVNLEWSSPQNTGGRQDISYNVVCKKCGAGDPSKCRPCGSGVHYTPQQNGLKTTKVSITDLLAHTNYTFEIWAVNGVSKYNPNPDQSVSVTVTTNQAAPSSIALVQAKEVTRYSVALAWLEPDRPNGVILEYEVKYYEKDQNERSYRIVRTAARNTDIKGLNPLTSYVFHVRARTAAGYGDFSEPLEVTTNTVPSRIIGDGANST
# EphA2, sequence (P29317 24-976): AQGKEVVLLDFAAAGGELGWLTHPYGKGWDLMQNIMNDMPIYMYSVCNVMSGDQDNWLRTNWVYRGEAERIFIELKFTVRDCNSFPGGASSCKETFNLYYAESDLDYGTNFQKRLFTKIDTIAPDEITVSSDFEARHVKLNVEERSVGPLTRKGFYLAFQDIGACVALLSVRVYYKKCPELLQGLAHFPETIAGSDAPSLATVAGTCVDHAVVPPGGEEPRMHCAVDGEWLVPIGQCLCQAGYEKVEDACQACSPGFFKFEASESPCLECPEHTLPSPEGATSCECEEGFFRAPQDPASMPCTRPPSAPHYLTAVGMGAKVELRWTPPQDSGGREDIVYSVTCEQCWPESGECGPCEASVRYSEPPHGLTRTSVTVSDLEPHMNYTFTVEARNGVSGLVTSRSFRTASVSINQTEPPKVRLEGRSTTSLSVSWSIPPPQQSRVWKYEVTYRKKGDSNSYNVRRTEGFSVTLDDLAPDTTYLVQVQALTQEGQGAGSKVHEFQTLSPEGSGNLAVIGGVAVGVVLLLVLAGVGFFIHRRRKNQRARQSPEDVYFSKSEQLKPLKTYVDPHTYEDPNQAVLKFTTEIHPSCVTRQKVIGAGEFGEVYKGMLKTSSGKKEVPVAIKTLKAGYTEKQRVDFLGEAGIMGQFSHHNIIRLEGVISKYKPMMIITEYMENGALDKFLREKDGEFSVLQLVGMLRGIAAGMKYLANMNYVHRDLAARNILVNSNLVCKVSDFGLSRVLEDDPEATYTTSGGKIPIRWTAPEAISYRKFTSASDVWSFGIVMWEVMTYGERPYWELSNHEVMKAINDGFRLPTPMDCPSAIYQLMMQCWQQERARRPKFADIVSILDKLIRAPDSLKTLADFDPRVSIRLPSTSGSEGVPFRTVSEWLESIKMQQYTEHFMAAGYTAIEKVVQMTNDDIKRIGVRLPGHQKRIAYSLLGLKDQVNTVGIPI
SMILES,inhibition of EphA4-ephrin-A5 binding (in words) (EphA4),"reversibility of binding to EphA4 (EphA4; compounds removed, 3 hours in binding buffer before ephrin AP)",Ki (EphA4; [1]) [µM],Ki (EphA4; [2]) [µM],Ki (EphA4; [3]) [µM],IC50 (EphA4) [µM],EphA2 activation following stimulation with ephrin-A1 Fc (EphA2)
"Cc1ccc(C)n1-c1ccc(C(=O)O)c(O)c1 [compound 1, 4-(2,5-dimethyl-pyrrol-1-yl)-2-hydroxy-benzoic acid]",inhibit,binds reversibly,8,6 to 10,10,13,blocked
"Cc1ccc(C)n1-c1ccc(O)c(C(=O)O)c1 [compound 2, 5-(2,5 dimethyl-pyrrol-1-yl)-2-hydroxy-benzoic acid]",inhibit,,7,6 to 8,6,9,blocked
